Entries after “also recorded” stand apart in the source; their conditions may differ.
Key:
microorganisms = experiment: Peptides having multiple activities (targeting/binding, antimicrobial, growth or phenotype altering)
Description: In certain embodiments, peptides described herein can have multiple activities. Thus for example, a peptide can have both binding/targeting activity and antimicrobial activity. Such peptides can be used, e.g., in a chimeric construct, for any or all of these properties. Thus, for example, a peptide designated “B” in Table 8 can be used as a targeting peptide. If it is also designated G or M it can also be used for antimicrobial activity.

[1] = test system: microorganisms (e.g., bacteria, yeasts, fungi); experiment: Targeting peptide binding to target microorganisms (Table 3); details: preferably 1x PBS; for Target(s) (microorganisms bound by the targeting peptide): peptide binding in aqueous buffers varied by peptide solubility
S. mutans = experiment: Kill or inhibit growth/proliferation; morphology, biofilm and growth disruption (Tables 5, 6); format: cell-based, Streptococcus mutans; set-up: key: A: Peptide aggregates; B: Less hyphal formation; Clumps; Diffuse clumps and small polyps; F: Diffuse growth; H: Thin; I: Growth inhibition; Microcolony formation; Rippled; Small polyps; Thick; W: Halo formation on top, microlonies on bottom; further: test concentration or dose not given here
P. aeruginosa = experiment: as above; format: cell-based, Pseudomonas aeruginosa; set-up: key: A: Peptide aggregates; B: Less hyphal formation; Clumps; Diffuse clumps and small polyps; F: Diffuse growth; H: Thin; I: Growth inhibition; Microcolony formation; Rippled; Small polyps; Thick; W: Halo formation on top, microlonies on bottom
MRSA = experiment: as above; format: cell-based, Methicillin-resistant Staphylococcus aureus; set-up: key: A: Peptide aggregates; B: Less hyphal formation; Clumps; Diffuse clumps and small polyps; F: Diffuse growth; H: Thin; I: Growth inhibition; Microcolony formation; Rippled; Small polyps; Thick; W: Halo formation on top, microlonies on bottom
S. pneumoniae = experiment: as above; format: cell-based, Streptococcus pneumoniae; set-up: key: A: Peptide aggregates; B: Less hyphal formation; Clumps; Diffuse clumps and small polyps; F: Diffuse growth; H: Thin; I: Growth inhibition; Microcolony formation; Rippled; Small polyps; Thick; W: Halo formation on top, microlonies on bottom
S. epidermidis = experiment: as above; format: cell-based, Staphylococcus epidermidis; set-up: key: A: Peptide aggregates; B: Less hyphal formation; Clumps; Diffuse clumps and small polyps; F: Diffuse growth; H: Thin; I: Growth inhibition; Microcolony formation; Rippled; Small polyps; Thick; W: Halo formation on top, microlonies on bottom
M. luteus = experiment: as above; format: cell-based, Micrococcus luteus; set-up: key: A: Peptide aggregates; B: Less hyphal formation; Clumps; Diffuse clumps and small polyps; F: Diffuse growth; H: Thin; I: Growth inhibition; Microcolony formation; Rippled; Small polyps; Thick; W: Halo formation on top, microlonies on bottom
E. coli = experiment: as above; format: cell-based, Escherichia coli; set-up: key: A: Peptide aggregates; B: Less hyphal formation; Clumps; Diffuse clumps and small polyps; F: Diffuse growth; H: Thin; I: Growth inhibition; Microcolony formation; Rippled; Small polyps; Thick; W: Halo formation on top, microlonies on bottom; further: test concentration or dose not given here
B. subtilis = experiment: as above; format: cell-based, Bacillus subtilis; set-up: key: A: Peptide aggregates; B: Less hyphal formation; Clumps; Diffuse clumps and small polyps; F: Diffuse growth; H: Thin; I: Growth inhibition; Microcolony formation; Rippled; Small polyps; Thick; W: Halo formation on top, microlonies on bottom; further: test concentration or dose not given here
E. faecalis = experiment: as above; format: cell-based, Enterococcus faecalis; set-up: key: A: Peptide aggregates; B: Less hyphal formation; Clumps; Diffuse clumps and small polyps; F: Diffuse growth; H: Thin; I: Growth inhibition; Microcolony formation; Rippled; Small polyps; Thick; W: Halo formation on top, microlonies on bottom; further: test concentration or dose not given here
C. jeikeium = experiment: as above; format: cell-based, Corynebacterium jeikeium; set-up: key: A: Peptide aggregates; B: Less hyphal formation; Clumps; Diffuse clumps and small polyps; F: Diffuse growth; H: Thin; I: Growth inhibition; Microcolony formation; Rippled; Small polyps; Thick; W: Halo formation on top, microlonies on bottom; further: test concentration or dose not given here
C. albicans = experiment: as above; format: cell-based, Candida albicans; set-up: key: A: Peptide aggregates; B: Less hyphal formation; Clumps; Diffuse clumps and small polyps; F: Diffuse growth; H: Thin; I: Growth inhibition; Microcolony formation; Rippled; Small polyps; Thick; W: Halo formation on top, microlonies on bottom
[2] = microorganism the targeting peptide binds, binding in aqueous buffers varied by peptide solubility
Wherever Organism, effect (morphology, biofilm and growth disruption) is given: test concentration or dose not given here.
Wherever Organism, effect is given: test concentration or dose not given here.

Substance	Activities (microorganisms)	Target(s) (microorganisms bound by the targeting peptide) [1]	Organism, effect (morphology, biofilm and growth disruption) (S. mutans)	Organism, effect (MRSA)	Organism, effect (S. pneumoniae)	also measured
GNVHPESDFHNLIQFIKTFLYFTIFFKYFL [PF-C290]	G B	A. naeslundii; also recorded: F. nucleatum; also recorded: P. gingivalis; also recorded: S. mutans; also recorded: T. denticola	S. mutans (F)	–	–	–
KKFKIFVIINWFYHKYIILNFEENF [PF-C085]	G B	A. naeslundii; also recorded: F. nucleatum; also recorded: P. gingivalis; also recorded: S. mutans; also recorded: T. denticola	S. mutans (F)	–	–	–
LSPRPIIVSRRSRADNNNDWSR [PF-143]	G B	–	–	–	–	Target(s) ([1]; microorganism(s) the targeting peptide binds, binding in aqueous buffers depending on peptide solubility): S. epidermidis and MRSA and C. jeikeium; Organism, effect (P. aeruginosa): P. aeruginosa (C)
PF-020: peptide having multiple activities (chain 1 MKIILLLFLIFGFIVVVTLKSEHQLTLFSI; chain 2 MKIILLLFLIFGFIVVVTLKSEHQLTLFSI; Peptide with targeting and/or antimicrobial activity)	G B	–	–	MRSA (C)	S. pneumoniae (D)	Target(s) [1, 2]: S. epidermidis and M. luteus and C. albicans and MRSA and S. pneumoniae and E. faecalis; Organism, effect (S. mutans): S. mutans (F); Organism, effect (S. epidermidis): S. epidermidis (C); Organism, effect (M. luteus): M. luteus (C)
PF-051: peptide having multiple activities (chain 1 RFFNFEIKKSTKVDYVFAHVDLSDV; chain 2 RFFNFEIKKSTKVDYVFAHVDLSDV; Peptide with targeting and/or antimicrobial activity)	G B	–	–	MRSA (D)	S. pneumoniae (D)	Target(s) [1, 2]: S. epidermidis and M. luteus and P. aeruginosa and C. albicans and MRSA and S. pneumoniae and E. faecalis; Organism, effect (S. mutans): S. mutans (D); Organism, effect (S. epidermidis): S. epidermidis (D); Organism, effect (M. luteus): M. luteus (C)
PF-458: peptide having multiple activities (chain 1 ISLIIFIMLFVVALFKCITNYKHQS; chain 2 ISLIIFIMLFVVALFKCITNYKHQS; Peptide with targeting and/or antimicrobial activity)	G B	–	–	MRSA (M)	S. pneumoniae (M)	Organism, effect (P. aeruginosa): P. aeruginosa (H)
PF-535 (NIKTRKRALKIIKQHQRSK; Peptide with targeting and/or antimicrobial activity)	–	–	–	–	S. pneumoniae (H)	Organism, effect (P. aeruginosa): P. aeruginosa (H)
PF-543: peptide having multiple activities (chain 1 NILFGIIGFVVAMTAAVIVTAISIAK; chain 2 NILFGIIGFVVAMTAAVIVTAISIAK; Peptide with targeting and/or antimicrobial activity)	G B	–	–	MRSA (D)	S. pneumoniae (D)	Organism, effect (E. coli): E. coli (C); Organism, effect (S. mutans): S. mutans (S); Organism, effect (S. epidermidis): S. epidermidis (D); Organism, effect (M. luteus): M. luteus (C)
PF-632: peptide having multiple activities (chain 1 TTIQGVASLEKHGFRYTIIYPTRI; chain 2 TTIQGVASLEKHGFRYTIIYPTRI; Peptide with targeting and/or antimicrobial activity)	G B	S. epidermidis and P. aeruginosa and C. albicans and MRSA and S. pneumoniae and E. faecalis and C. jeikeium	–	MRSA (D)	S. pneumoniae (M)	Organism, effect (B. subtilis): B. subtilis (H); Organism, effect (E. faecalis): E. faecalis (D); Organism, effect (C. jeikeium): C. jeikeium (D); Organism, effect (C. albicans): C. albicans (B); Organism, effect (S. epidermidis): S. epidermidis (D)
PF-668 (chain 1 TNAESMALAFRGRVHMSVNIAGLT; chain 2 TNAESMALAFRGRVHMSVNIAGLT; Peptide with targeting and/or antimicrobial activity)	–	Mycobacteria spp	–	–	–	Organism, effect (morphology, biofilm and growth disruption) (B. subtilis): B. subtilis (A); Organism, effect (morphology, biofilm and growth disruption) (MRSA): MRSA (R); Organism, effect (morphology, biofilm and growth disruption) (E. faecalis): E. faecalis (D); Organism, effect (morphology, biofilm and growth disruption) (C. jeikeium): C. jeikeium (D); Organism, effect (morphology, biofilm and growth disruption) (C. albicans): C. albicans (A); Organism, effect (morphology, biofilm and growth disruption) (S. pneumoniae): S. pneumoniae (M); Organism, effect (morphology, biofilm and growth disruption) (S. epidermidis): S. epidermidis (M)
PF-776: peptide having multiple activities (VSILLYLSATIILPNVLRLLVARAIIVRV; Peptide with targeting and/or antimicrobial activity)	G B	S. epidermidis and M. luteus and P. mirabilis and C. albicans and MRSA and S. pneumoniae and E. faecalis	S. mutans (D)	–	–	Organism, effect (morphology, biofilm and growth disruption) (MRSA): MRSA (D); Organism, effect (morphology, biofilm and growth disruption) (E. coli): E. coli (C); Organism, effect (morphology, biofilm and growth disruption) (S. pneumoniae): S. pneumoniae (C); Organism, effect (morphology, biofilm and growth disruption) (S. epidermidis): S. epidermidis (D); Organism, effect (morphology, biofilm and growth disruption) (M. luteus): M. luteus (C)
PF-C057: peptide having multiple activities (YFWWYWVQDCIPYKNNEVWLELSNNMK; Peptide with targeting and/or antimicrobial activity)	G B	A. naeslundii; also recorded: F. nucleatum; also recorded: P. gingivalis; also recorded: S. mutans	S. mutans (I)	–	–	–
PF-C139: peptide having multiple activities (LLASHPERLSLGVFFVYRVLHLLLENT; Peptide with targeting and/or antimicrobial activity)	G B	A. naeslundii; also recorded: F. nucleatum; also recorded: P. gingivalis; also recorded: S. mutans; also recorded: T. denticola	S. mutans (F)	–	–	–
PF-C142: peptide having multiple activities (DFPPLSFFRRRFHAYTAPIDNFFGANPF; Peptide with targeting and/or antimicrobial activity)	G B	A. naeslundii; also recorded: F. nucleatum; also recorded: P. gingivalis; also recorded: S. mutans; also recorded: T. denticola	S. mutans (I)	–	–	–
PF-C281: peptide having multiple activities (KKEKLLTAIRLQHRAEIRGYFTIFFLFFRI; Peptide with targeting and/or antimicrobial activity)	G B	A. naeslundii; also recorded: F. nucleatum; also recorded: P. gingivalis; also recorded: S. mutans; also recorded: T. denticola	S. mutans (F)	–	–	–

From patent US20110039762A1, “TARGETED ANTIMICROBIAL MOIETIES” (C3 JIAN, INC., priority 2009, published 2011)
